Reference: the SangsterLogP compilation

logP | SMILES
2.55 | COC(=O)c1ccccc1O
1.68 | Cc1cccc(C)n1
0.83 | NC(=O)C(c1ccccc1)c1ccccn1 (stereo not given)
2.6 | Cc1c[nH]c2ccccc12
1.39 | O=C(O)COc1ccccc1F
2.4 | O=C(O)c1ccccc1I
-1.76 | OCC(O)CO
-0.72 | Cc1cn([C@H]2C=C[C@@H](CO)O2)c(=O)[nH]c1=O
-3.32 | N[C@@H](Cc1cnc[nH]1)C(=O)O

SMILES | logP
CC(=O)C=Cc1ccccc1 | 2.07
